Inhibition in vivo and IC50 data for seven compounds are collected here from US5120752A, “Cyclopropyl derivative lipoxygenase inhibitors” (Abbott Laboratories, priority 1990, dated 1992).

The subject of one test is leukotriene biosynthesis. Description: Inhibition of leukotriene biosynthesis in vivo after oral administration, rat peritoneal anaphylaxis model. Conditions: 100 μmol/kg oral (gavage), 1 h before antigen challenge, read-out: % Inhibition of Leukotrienes at 100 μmol/kg oral dose. On the procedure: Inhibition of the biosynthesis of leukotrienes in vivo after oral administration of representative test compounds of this invention was determined using a rat peritoneal anaphylaxis model in a similar manner as that described by Young and coworkers (Young, P. R.; Dyer, R. D.; Carter, G. W. Fed. Proc., Fed. Am. Soc. Exp. Biol. 1985, 44, 1185). In this model rats were injected intraperitoneally (ip) with rabbit antibody to bovine serum albumin (BSA) and three hours later injected ip with BSA to induce an antgen-antibody response. Rats were sacrificed 15 minutes after this challenge and the peritoneal fluids were collected and analyzed for leukotriene levels. Test compounds were administered by gavage one hour prior to the antigen challenge. Percent inhibition values were determined by comparing the treatment group to the mean of the control group. The results of this assay, for representative compounds of the present invention, at an oral dose level of […] are presented in Table 2, and at an oral dose of […] in Table 3.

Test [1] deals with LTB4 biosynthesis in human whole blood. The experiment in a line: Inhibition of calcium ionophore-induced LTB4 biosynthesis in human whole blood. Format: cell-based. Conditions: A23187 50 μM, 15 min preincubation, read-out: Inhibition of Leukotriene Biosynthesis IC50. How it is done:
Inhibition of leukotriene biosynthesis was evaluated in an assay, involving calcium ionophore-induced LTB4 biosynthesis expressed by human whole blood. Heparinized (20 U/mL) human blood (0.3 mL) was preincubated with test compound or vehicle for 15 min. at 37° C. Eicosanoid biosynthesis was initiated by adding calcium ionophore (A23187) in DMSO to a final concentration of 50 μM and terminated after 30 min. by rapid cooling of the blood in an ice bath and centrifuging at 3° C. for 10 min at 2500×g. The plasma was mixed with 4 volumes of methanol and allowed to stand for at least 30 min. at 3° C. prior to centrifuging at 1800×g for 10 min. The level of LTB4 in aliquots of the methanol-plasma extract was analyzed by radio-immunoassay or enyme-immunoassay techniques.

Structures are written as SMILES.

As a reminder, the IC50 is the point on the concentration scale where inhibition reaches its midpoint. In the case of `NC(=O)N(O)C[C@@H]1C[C@H]1c1ccsc1` (relative stereo) [Example 188, N-(1-trans-(2-(3-thienyl)cyclopropyl)methyl)-N-hydroxyurea], in the test with leukotriene biosynthesis, the inhibition in vivo at 100 µmol/kg turned out to be 97%. Also, the IC50 in test [1] was determined as 320 nM.

As for `NC(=O)N(O)C[C@@H]1C[C@H]1c1ccoc1` (relative stereo) [Example 193, N-(1-trans-(2-(3-furanyl)cyclopropyl)methyl)-N-hydroxyurea], the inhibition in vivo at 100 µmol/kg in the test with leukotriene biosynthesis is 93%. The IC50 in test [1] came to 230 nM.

For `NC(=O)N(O)C[C@@H]1C[C@H]1c1cccs1` (relative stereo) [Example 194, N-(1-trans-(2-(2-thienyl)cyclopropyl)methyl)-N-hydroxyurea], the inhibition in vivo at 100 µmol/kg in the test on leukotriene biosynthesis was found to be 97%. The IC50 in test [1] came to 370 nM.

Consider `NC(=O)N(O)C[C@@H]1C[C@H]1c1ccco1` (relative stereo) [Example 198, N-(1-trans-(2-(2-furanyl)cyclopropyl)methyl)-N-hydroxyurea], for which the inhibition in vivo at 100 µmol/kg in the test on leukotriene biosynthesis amounted to 90%. Further, the IC50 in test [1] turned out to be 970 nM.

In the case of `Cc1ccc(Oc2cccc([C@@H]3C[C@H]3C(C)N(O)C(N)=O)c2)cc1` (stereo partly drawn) [Example 180, N-(1-trans-(2-(3-(4-methylphenoxy)phenyl)cyclopropyl)ethyl)-N-hydroxyurea], the inhibition in vivo at 100 µmol/kg in the test on leukotriene biosynthesis amounted to 85%. For the same compound, the IC50 in test [1] was 690 nM.

As to `CC([C@@H]1C[C@H]1c1ccsc1)N(O)C(N)=O` (stereo partly drawn) [Example 189, N-(1-trans-(2-(3-thienyl)cyclopropyl)ethyl)-N-hydroxyurea], the inhibition in vivo at 100 µmol/kg in the test with leukotriene biosynthesis worked out at 73%. In test [1], the IC50 amounted to 680 nM.

`CC([C@@H]1C[C@H]1c1ccoc1)N(O)C(N)=O` (stereo partly drawn) [Example 192, N-(1-trans-(2-(3-furanyl)cyclopropyl)ethyl)-N-hydroxyurea]: in the test with leukotriene biosynthesis, the inhibition in vivo at 100 µmol/kg worked out at 71%. Further, in test [1], the IC50 is 1200 nM.
